Measurements taken from EP0434979B1, “Peptide derivatives useful as antagonists of bombesin and gastrin-releasing peptide” (MERRELL DOW PHARMACEUTICALS INC., priority 1989, dated 1991).
Where two headings read alike, the source gives them in different places. Blank lines part the entries; values can stand above or below the compound they belong to. Where a SMILES comes first, the peptide text is derived from it. [ ]: non-standard residue; d: D form. The star is where a group is joined. Pheψ(CH2S)LeuNH2 = CC(C)C[C@H](SC[C@H](Cc1ccccc1)N*)C(N)=O; pGlu = O=C1CC[C@@H](C(=O)O)N1

How the values were obtained:
[1] = molecular target: T1, bombesin/GRP receptor (Mus musculus, UniProt P21729); experiment: Competition at the receptor for iodinated GRP (binding to murine pancreatic membranes); set-up: species or system mice
T1 construct: Pancreata from mice were pooled and chopped at 350 µm with a tissue chopper; from tissue; host or cells: chopped mouse pancreas
T1 sequence (P21729 whole entry): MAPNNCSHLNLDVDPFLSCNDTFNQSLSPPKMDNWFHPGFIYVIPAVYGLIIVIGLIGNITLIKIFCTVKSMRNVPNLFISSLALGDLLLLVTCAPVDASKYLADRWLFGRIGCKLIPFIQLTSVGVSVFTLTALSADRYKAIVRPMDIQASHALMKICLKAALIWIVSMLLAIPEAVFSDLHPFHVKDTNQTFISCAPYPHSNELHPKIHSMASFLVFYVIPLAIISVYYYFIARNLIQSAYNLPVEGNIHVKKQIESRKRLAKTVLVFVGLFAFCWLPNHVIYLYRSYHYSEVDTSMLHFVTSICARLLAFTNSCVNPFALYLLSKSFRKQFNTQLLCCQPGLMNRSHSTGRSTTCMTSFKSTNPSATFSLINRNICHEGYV
Experimental: The pancreata from one or more mice were pooled, minced, and homogenized in 50 mM HEPES (pH 7.4) containing 120 mM NaCl and 5 mM KCl at 4°C and centrifuged at 37,500 X g for 15 minutes. The pellet was resuspended in 50 mM HEPES (pH 7.4) containing 10 mM EDTA and 300 mM KCl and incubated for 30 minutes at 4°C. The suspension was centrifuged as above and the pellet was washed two times in 50 mM HEPES (pH 7.4) containing protease inhibitors (10 µM phenylmethylsulfonyl fluoride, 1 µM thiorphan, 40 µg/ml bacitracin, 10mM iodoacetimide and 4 µg/ml leupeptin), and again centrifuged. The tissue was then resuspended in incubation buffer (1ml per 4 mg pancreas) and incubated for 15 minutes at room temperature, then 250 µl was added to each assay tube to commence the assay. […] The assay was allowed to proceed to equilibrium for 90 minutes at room temperature. After this time, the contents of each tube was rapidly filtered over Whatman GF/B filters presoaked in 0.1% polyethyleneimine and the filters were rapidly washed three times with ice-cold 50 mM HEPES (pH 7.4). Filter-bound radioactivity was quantitated in a gamma counter. […] Affinity and maximal binding were calculated with Ligand (Biosoft, Cambridge, UK) (Figure 1 and Figure 2).
Binding was assayed in triplicate using 0.1 […] and the indicated concentrations of peptide. The abscissa (x-axis) logarithmically indicates the concentration of agonists or antagonist of the GRP receptor.

[2] = molecular target: T1, bombesin/GRP receptor; experiment: Phosphatidylinositol (PI) turnover in chopped murine pancreas, alone (agonism) or before GRP (antagonism); type: cell-based, mice; set-up: key to PI Turnover Agonist / PI Turnover Antag.: "+" indicates activity; "-" indicates no activity; conditions: for PI Turnover Antag.: ability to block GRP-stimulated PI turnover, pretreatment with 1 uM potential antagonist; for PI Turnover Antag. / PI Turnover Agonist: murine pancreas; for PI Turnover Agonist: ability to stimulate PI turnover
Experimental: Pancreata from mice were pooled and chopped at 350 µm with a tissue chopper. The chopped tissue was washed twice with Krebs-Hepes buffer, then incubated for 30 minutes in 37°C Krebs-Hepes buffer with fresh buffer after 15 minutes. The tissue was then incubated in this buffer containing 100-200 µCi of ³H-inositol at 37°C for 1 hour. The tissue was then washed twice and incubated for another 30 minutes in Krebs-Hepes buffer (containing 10 mM Li⁺) at 37°C with fresh buffer change after 15 minutes. Portions of the tissue mass (approximately 10 mg per assay tube) were then placed in Li⁺ buffer with protease inhibitors, (40 µg/ml bacitracin,4 µg/ml leupeptin, 4 µg/ml chymostatin, 20 µg/ml thiorphan), 0.1% BSA, and then 0.1-1000 nM peptide was added in 25 µl in a final volume of 250 µl. […] After 60 minutes at room temperature, the phosphatidylinositol turnover was terminated by the addition of 940 µl chloroform:methanol (1:2), followed by 310 µl chloroform, followed by 310 µl water. Each tube was then vortexed for 5 seconds and then centrifuged at 2500 x g for 8 minutes to separate the phases. 900 µl of the top (aqueous) phase was then mixed with 2.1 ml water and loaded onto a 0.5 ml Biorad AG-1X8 (formate) ion exchange column. 50 µl of the bottom phase (chloroform) was withdrawn from each tube and placed in a counting vial, dried, and counted in scintillation fluid. The material on the columns was washed in order with: 1) 10 ml of water 2) 5 ml of 5 mM disodium tetraborate/60 mM sodium formate 3) 10 ml of 1 M ammonium formate in 0.1 M formic acid. The final (third) wash was collected and one ml was mixed with 10 ml of Bio-Safe scintillant and counted. The ratio of these counts (total inositol phosphates) to the corresponding organic phase counts was then calculated for each sample. The ratios in the presence of test compound and/or standards were then compared to the ratios for control tubes (i.e., no stimulating agonist). Dose-response lines were constructed and the abilities of test compounds to stimulate or to inhibit GRP induced phosphatidylinositol turnover were determined by graphical analysis or with the aid of a computer program and are illustrated in Figures 3 and 4.
The abscissa (x-axis) logarithmically indicates the concentration of peptide present. The ordinate (y-axis) indicates the observed PI turnover as a percentage of control. Values are mean ± standard error of triplicate determinations; where not shown, the errors are ≤the size of the data points.
Figure 4 illustrates the ability of (Phe₁₃[CH₂s]Leu₁₄)bombesin to antagonize GRP-induced PI turnover in murine pancreas (Example 2). The abscissa (x-axis) logarithmically indicates the concentration of peptide present. The ordinate (y-axis) indicates the observed PI turnover as a percentage of control. […] Data are the mean ± standard error of triplicate determinations; where not shown, the errors are ≤ the size of the data points.

[3] = LIGAND analysis, 0.1 nM iodinated GRP, triplicate, murine pancreatic membranes (Figure 2), read-out: Kd
[4] = Kd (nM), receptor affinity, competition for iodinated GRP binding, murine pancreatic membranes

Structure (SMILES): CC(C)C[C@H](NC(=O)[C@H](CCCNC(=N)N)NC(=O)[C@H](CCC(N)=O)NC(=O)[C@@H]1CCC(=O)N1)C(=O)NCC(=O)N[C@@H](CC(N)=O)C(=O)N[C@@H](CCC(N)=O)C(=O)N[C@@H](Cc1c[nH]c2ccccc12)C(=O)N[C@@H](C)C(=O)N[C@H](C(=O)NCC(=O)N[C@@H](Cc1c[nH]cn1)C(=O)N[C@H](CS[C@@H](CC(C)C)C(N)=O)Cc1ccccc1)C(C)C [pQ Q R L G N Q W A V G H FΨ[CH₂S]L#] ([pGlu]QRLGNQWAVGH-{Pheψ(CH2S)LeuNH2})
- Kd [1, 3]: 3 nM
- Kd ([1]; receptor affinity, competition for iodinated GRP binding, murine pancreatic membranes, read-out: Kd): 3 nM
- stimulation of phosphatidylinositol (PI) turnover (agonist activity) ([2]; PI turnover as percentage of control, dose-response, triplicate (Figure 3)): no agonist activity
- PI Turnover Antag. [2]: +
- PI Turnover Agonist [2]: -
- antagonism of GRP-induced PI turnover ([2]; preincubation for 30 minutes with 1000 nM peptide, then 1-1000 nM GRP, murine pancreas (Figure 4)): reduces the stimulation of PI turnover

Structure (SMILES): CCCC[C@H](SC[C@H](Cc1ccccc1)NC(=O)[C@H](Cc1c[nH]cn1)NC(=O)CNC(=O)[C@@H](NC(=O)[C@H](C)NC(=O)[C@H](Cc1c[nH]c2ccccc12)NC(=O)[C@H](CCC(N)=O)NC(=O)[C@@H]1CCC(=O)N1)C(C)C)C(N)=O [pQ Q W A V G H FΨ [CH₂S]Z#, pGlu-Gln-Trp-Ala-Val-Gly- His-Phe Ψ(CH₂S]Nle-NH₂]
- Kd [1, 4]: 4 nM

Structure (SMILES): CC(C)C[C@H](SC[C@H](Cc1ccccc1)NC(=O)[C@H](Cc1c[nH]cn1)NC(=O)CNC(=O)[C@@H](NC(=O)[C@H](C)NC(=O)[C@H](Cc1c[nH]c2ccccc12)NC(=O)[C@H](CCC(N)=O)NC(=O)[C@@H]1CCC(=O)N1)C(C)C)C(N)=O [pQ Q W A V G H FΨCH₂S]L#]
- Kd [1, 4]: 3 nM

- Kd [1, 3]: 0.1 nM
Structure (SMILES): CC(C)C[C@H](NC(=O)[C@H](Cc1ccccc1)NC(=O)[C@H](Cc1c[nH]cn1)NC(=O)CNC(=O)[C@@H](NC(=O)[C@H](C)NC(=O)[C@H](Cc1c[nH]c2ccccc12)NC(=O)[C@H](CCC(N)=O)NC(=O)[C@H](CC(N)=O)NC(=O)CNC(=O)[C@H](CC(C)C)NC(=O)[C@H](CCCNC(=N)N)NC(=O)[C@H](CCC(N)=O)NC(=O)[C@@H]1CCC(=O)N1)C(C)C)C(N)=O [(Phe₁₃Leu₁₄) bombesin, reference compound] ([pGlu]QRLGNQWAVGHFL-NH2)

Structure (SMILES): CC(C)C[C@@H](C(N)=O)[S+]([O-])C[C@H](Cc1ccccc1)NC(=O)[C@H](Cc1c[nH]cn1)NC(=O)CNC(=O)[C@@H](NC(=O)[C@H](C)NC(=O)[C@H](Cc1c[nH]c2ccccc12)NC(=O)[C@H](CCC(N)=O)NC(=O)[C@@H]1CCC(=O)N1)C(C)C (single isomer, unassigned) [pQ Q W A V G H FΨ[CH₂S(O)]^IL#]
- Kd [1, 4]: 2 nM

- PI Turnover Antag. [2]: +
- PI Turnover Agonist [2]: -
Structure (SMILES): CC(=O)N[C@H](Cc1ccccc1)C(=O)N[C@@H](CCC(N)=O)C(=O)N[C@@H](Cc1c[nH]c2ccccc12)C(=O)N[C@@H](C)C(=O)N[C@H](C(=O)N[C@H](C)C(=O)N[C@@H](Cc1c[nH]cn1)C(=O)N[C@H](CS[C@@H](CC(C)C)C(N)=O)Cc1ccccc1)C(C)C [Acf Q W A V a H FΨ[CH₂S]L#, Ac-D-Phe-Gln-Trp-Ala-Val-D-Ala-His-PheΨ[CH₂S]Leu-NH₂] (Ac-[dF]QWAV[dA]H-{Pheψ(CH2S)LeuNH2})

Structure (SMILES): CC(C)C[C@@H](C(N)=O)[S+]([O-])C[C@H](Cc1ccccc1)NC(=O)[C@H](Cc1c[nH]cn1)NC(=O)CNC(=O)[C@@H](NC(=O)[C@H](C)NC(=O)[C@H](Cc1c[nH]c2ccccc12)NC(=O)[C@H](CCC(N)=O)NC(=O)[C@@H]1CCC(=O)N1)C(C)C (single isomer, unassigned) [pQ Q W A V G H FΨ[CH₂S(O)]^IIL#]
- Kd [1, 4]: 1 nM
